Data: patent US4311698A, “Aminoacid derivatives of cephalosporin compounds” (priority 1980, dated 1982)
Values after ≈ are worked out from the molar mass of the structure shown.

Tests used:
Assay type in all cases: cell-based
Klebs. Pneum. MGH 2 = experiment: In vitro minimal inhibitory concentration, Klebs. Pneum. MGH 2
Entero Cloac. IM 11 = experiment: In vitro minimal inhibitory concentration, Entero Cloac. IM 11
Pseudomonas UI 18 = experiment: In vitro minimal inhibitory concentration, Pseudomonas UI 18; conditions: for MIC: UI18
Staph UC76 = experiment: In vitro minimal inhibitory concentration, Staph UC76
Pseudomonas BRK 12-4-4 = experiment: In vitro minimal inhibitory concentration, Pseudomonas BRK 12-4-4; conditions: for MIC: BRK1244
Prot Vulg. = experiment: In vitro minimal inhibitory concentration, Prot Vulg.
Pseudomonas #28 = experiment: In vitro minimal inhibitory concentration, Pseudomonas #28; conditions: Pseudomonas #28, in vitro; for MIC: read-out: Minimal Inhibitory Concentration
E. Coli. Vogel = experiment: In vitro minimal inhibitory concentration, E. Coli. Vogel; conditions: for MIC: Escherichia coli
Strep. fec. MGH 2 = experiment: In vitro minimal inhibitory concentration, Strep. fec. MGH 2
E. Coli. Brig = experiment: In vitro minimal inhibitory concentration, E. Coli. Brig; conditions: for MIC: Escherichia coli
Serr. Mar. IMM 16 = experiment: In vitro minimal inhibitory concentration, Serr. Mar. IMM 16
Staph S 18713 = experiment: In vitro minimal inhibitory concentration, Staph S 18713

SMILES | MIC (Klebs. Pneum. MGH 2) | MIC (Entero Cloac. IM 11) | MIC (Pseudomonas UI 18) | MIC (Staph UC76) | MIC (Pseudomonas BRK 12-4-4) | MIC (Prot Vulg.) | MIC (Pseudomonas #28) | MIC (E. Coli. Vogel) | MIC (Strep. fec. MGH 2) | MIC (E. Coli. Brig) | MIC (Serr. Mar. IMM 16) | MIC (Staph S 18713) | further results
CC(=O)NCCCCC(NC(C)=O)C(=O)Nc1ccc(-c2ccc(C(=O)N[C@@H](C(=O)NC3C(=O)N4C(C(=O)O)=C(CSc5nnnn5C)CSC34)c3ccccc3)c(=O)[nH]2)cc1 (mixture of isomers) [Example 26, N-[6-[4-(N,N'-Diacetyl-DL-lysylamino)phenyl)-1,2-dihydro-2-oxonicotinyl]-7-[D-2-amino-2-phenylacetamido]3-[[(1-methyl-1H-tetrazol-5-yl)thio]methyl]-3-cephem-4-carboxylic acid] | 1.6 µg/mL | 6.3 µg/mL | 12.5 µg/mL | 1.6 µg/mL | 12.5 µg/mL | 25 µg/mL | 12.5 µg/mL | 1.6 µg/mL | 50 µg/mL | 12.5 µg/mL | 50 µg/mL | 6.3 µg/mL | 
CC(=O)N[C@H](CC(N)=O)C(=O)Nc1ccc(-c2ccc(C(=O)N[C@@H](C(=O)NC3C(=O)N4C(C(=O)O)=C(COC(C)=O)CSC34)c3ccccc3)c(=O)[nH]2)cc1 (stereo partly drawn) [Example 13, N-[6-[4-(N-Acetyl-D-aspariginylamino)phenyl]-1,2-dihydro-2-oxonicotinyl]-7-[D-2-amino-2-phenylacetamido]-3-acetoxymethyl-3-cephem-4-carboxylic acid] | 6.3 µg/mL (≈ 8.14 µM) | 12.5 µg/mL (≈ 16.2 µM) | 6.3 µg/mL (≈ 8.14 µM) | 0.8 µg/mL (≈ 1.03 µM) | 12.5 µg/mL (≈ 16.2 µM) | 25 µg/mL (≈ 32.3 µM) | 12.5 µg/mL (≈ 16.2 µM) | 3.1 µg/mL (≈ 4.01 µM) | 25 µg/mL (≈ 32.3 µM) | 12.5 µg/mL (≈ 16.2 µM) | > 50 µg/mL | 6.3 µg/mL (≈ 8.14 µM) | 
CC(=O)N[C@@H](CCC(N)=O)C(=O)Nc1ccc(-c2ccc(C(=O)N[C@@H](C(=O)NC3C(=O)N4C(C(=O)O)=C(CSc5nnnn5C)CSC34)c3ccccc3)c(=O)[nH]2)cc1 (stereo partly drawn) [Example 9, N-[6-[4-(N-Acetyl-L-glutaminylamino)phenyl]-1,2-dihydro-2-oxonicotinyl]-7-(D-2-amino-2-phenylacetamido]-3-[[(1-methyl-1H-tetrazol-5-yl)thio]methyl]-3-cephem-4-carboxylic acid] | 0.8 µg/mL (≈ 0.948 µM) | 1.6 µg/mL (≈ 1.9 µM) | 6.3 µg/mL (≈ 7.47 µM) | 0.4 µg/mL (≈ 0.474 µM) | 6.3 µg/mL (≈ 7.47 µM) | 6.3 µg/mL (≈ 7.47 µM) | 3.1 µg/mL (≈ 3.67 µM) | 0.4 µg/mL (≈ 0.474 µM) | 25 µg/mL (≈ 29.6 µM) | 3.1 µg/mL (≈ 3.67 µM) | 12.5 µg/mL (≈ 14.8 µM) | 3.1 µg/mL (≈ 3.67 µM) | 
CC(=O)OCC1=C(C(=O)O)N2C(=O)C(NC(=O)[C@H](NC(=O)c3ccc(-c4ccc(NC(=O)[C@@H](C)N)cc4)[nH]c3=O)c3ccccc3)C2SC1 (stereo partly drawn) [Example 29, N-[6-[4-(D-Alanylamino)phenyl]-1,2-dihydro-2-oxonicotinyl]-7-[D-2-amino-2-phenylacetamido]-3-acetoxymethyl-3-cephem-4-carboxylic acid] |  |  |  |  |  |  |  |  |  |  |  |  | Minimal Inhibitory Concentration (Klebs. Pneum. MGH 2): 6.3 µg/mL; Minimal Inhibitory Concentration (Entero Cloac. IM 11): 12.5 µg/mL; Minimal Inhibitory Concentration (Pseudomonas UI 18): 1.6 µg/mL; Minimal Inhibitory Concentration (Staph UC76): 0.4 µg/mL; Minimal Inhibitory Concentration (Pseudomonas BRK 12-4-4): 1.6 µg/mL; Minimal Inhibitory Concentration (Prot Vulg.): 6.3 µg/mL; Minimal Inhibitory Concentration (Pseudomonas #28): 1.6 µg/mL; Minimal Inhibitory Concentration (E. Coli. Vogel): 1.6 µg/mL; Minimal Inhibitory Concentration (Strep. fec. MGH 2): 12.5 µg/mL; Minimal Inhibitory Concentration (E. Coli. Brig): 6.3 µg/mL; Minimal Inhibitory Concentration (Serr. Mar. IMM 16): 25 µg/mL; Minimal Inhibitory Concentration (Staph S 18713): 1.6 µg/mL
CC(=O)N[C@H](C)C(=O)Nc1ccc(-c2ccc(C(=O)N[C@@H](C(=O)NC3C(=O)N4C(C(=O)O)=C(CSc5nnnn5CC(=O)O)CSC34)c3ccccc3)c(=O)[nH]2)cc1 (stereo partly drawn) [Example 1, N-[6-[4-(N-Acetyl-D-alanylamino)phenyl]-1,2-dihydro-2-oxonicotinyl]-7-[D-2-amino-2-phenylacetamido]-3-[[(1-carboxymethyl-1H-tetrazol-5-yl)thio]methyl]-3-cephem-4-carboxylic acid] | 3.1 µg/mL (≈ 3.73 µM) | 3.1 µg/mL (≈ 3.73 µM) | 6.3 µg/mL (≈ 7.58 µM) | 3.1 µg/mL (≈ 3.73 µM) | 12.5 µg/mL (≈ 15 µM) | 3.1 µg/mL (≈ 3.73 µM) | 6.3 µg/mL (≈ 7.58 µM) | 0.4 µg/mL (≈ 0.481 µM) | > 50 µg/mL | 6.3 µg/mL (≈ 7.58 µM) | 12.5 µg/mL (≈ 15 µM) | 12.5 µg/mL (≈ 15 µM) | 
CC(=O)OCC1=C(C(=O)O)N2C(=O)C(NC(=O)[C@H](NC(=O)c3ccc(-c4ccc(NC(=O)C5CCCN5C(C)=O)cc4)[nH]c3=O)c3ccccc3)C2SC1 (mixture of isomers) [Example 17, N-[6-[4-(N-Acetyl-DL-prolylamino)phenyl]-1,2-dihydro-2-oxonicotinyl]-7-[D-2-amino-2-phenylacetamido]-3-acetoxymethyl-3-cephem-4-carboxylic acid] | 12.5 µg/mL | 25 µg/mL | 12.5 µg/mL | 1.6 µg/mL | 25 µg/mL | 25 µg/mL | 12.5 µg/mL | 3.1 µg/mL | 50 µg/mL | 25 µg/mL | 50 µg/mL | 3.1 µg/mL | 
CC(=O)NC(C)C(=O)Nc1ccc(-c2ccc(C(=O)N[C@@H](C(=O)NC3C(=O)N4C(C(=O)O)=C(COC(N)=O)CSC34)c3ccccc3)c(=O)[nH]2)cc1 (mixture of isomers) [Example 10, N-[6-[4(N-Acetyl-DL-alanylamino)phenyl]-1,2-dihydro-2-oxonicotinyl]-7-[D-2-amino-2-phenylacetamido]-3-carbamoyloxymethyl-3-cephem-4-carboxylic acid] | 12.5 µg/mL | 25 µg/mL | 6.3 µg/mL | 1.6 µg/mL | 12.5 µg/mL | 12.5 µg/mL | 3.1 µg/mL | 6.3 µg/mL | 12.5 µg/mL | 12.5 µg/mL | > 50 µg/mL | 3.1 µg/mL | 
CC(=O)OCC1=C(C(=O)O)N2C(=O)C(NC(=O)[C@H](NC(=O)c3ccc(-c4ccc(NC(=O)[C@@H]5CC(OC(C)=O)CN5C(C)=O)cc4)[nH]c3=O)c3ccccc3)C2SC1 (stereo partly drawn) [Example 32, N-[6-[4-[N-Acetyl-4-(acetyloxy)-L-prolylamino]phenyl]-1,2-dihydro-2-oxoniotinyl]-7-[D-2-amino-2-phenylacetamido]-3-acetoxymethyl-3-cephem-4-carboxylic acid] | 12.5 µg/mL (≈ 15.3 µM) | 25 µg/mL (≈ 30.7 µM) | 12.5 µg/mL (≈ 15.3 µM) | 1.6 µg/mL (≈ 1.96 µM) | 25 µg/mL (≈ 30.7 µM) | 25 µg/mL (≈ 30.7 µM) | 12.5 µg/mL (≈ 15.3 µM) | 6.3 µg/mL (≈ 7.73 µM) | 25 µg/mL (≈ 30.7 µM) | 25 µg/mL (≈ 30.7 µM) | > 50 µg/mL | 6.3 µg/mL (≈ 7.73 µM) | 
CC(=O)NCCCC[C@H](NC(C)=O)C(=O)Nc1ccc(-c2ccc(C(=O)N[C@@H](C(=O)NC3C(=O)N4C(C(=O)O)=C(COC(C)=O)CSC34)c3ccccc3)c(=O)[nH]2)cc1 (stereo partly drawn) [Example 35, N-[6-[4-(N,N'-Diacetyl-L-lysylamino)phenyl]-1,2-dihydro-2-oxonicotinyl]-7-[D-2-amino-2-phenylacetamido]-3-acetoxymethyl-3-cephem-4-carboxylic acid] | 12.5 µg/mL (≈ 15.1 µM) | 12.5 µg/mL (≈ 15.1 µM) | 6.3 µg/mL (≈ 7.59 µM) | 3.1 µg/mL (≈ 3.74 µM) | 12.5 µg/mL (≈ 15.1 µM) | > 50 µg/mL | 12.5 µg/mL (≈ 15.1 µM) | 6.3 µg/mL (≈ 7.59 µM) | 25 µg/mL (≈ 30.1 µM) | 25 µg/mL (≈ 30.1 µM) | > 50 µg/mL | 6.3 µg/mL (≈ 7.59 µM) | 
CC(=O)OCC1=C(C(=O)O)N2C(=O)C(NC(=O)[C@H](NC(=O)c3ccc(-c4ccc(NC(=O)[C@@H]5CCCN5C(C)=O)cc4)[nH]c3=O)c3ccccc3)C2SC1 (stereo partly drawn) [Example 12, N-[6-[4-(N-Acetyl-L-prolylamino)phenyl]-1,2-dihydro-2-oxonicotinyl]-7-[D-2-amino-2-phenylacetamido]-3-acetoxymethyl-3-cephem-4-carboxylic acid] | 6.3 µg/mL (≈ 8.32 µM) | 12.5 µg/mL (≈ 16.5 µM) | 6.3 µg/mL (≈ 8.32 µM) | 0.8 µg/mL (≈ 1.06 µM) | 12.5 µg/mL (≈ 16.5 µM) | 25 µg/mL (≈ 33 µM) | 6.3 µg/mL (≈ 8.32 µM) | 3.1 µg/mL (≈ 4.1 µM) | 12.5 µg/mL (≈ 16.5 µM) | 6.3 µg/mL (≈ 8.32 µM) | 50 µg/mL (≈ 66.1 µM) | 3.1 µg/mL (≈ 4.1 µM) | 
CC(=O)N[C@@H](CCC(N)=O)C(=O)Nc1ccc(-c2ccc(C(=O)N[C@@H](C(=O)NC3C(=O)N4C(C(=O)O)=C(COC(C)=O)CSC34)c3ccccc3)c(=O)[nH]2)cc1 (stereo partly drawn) [Example 14, N-[6-[4-(N-Acetyl-L-glutaminylamino)phenyl]-1,2-dihydro-2-oxonicotinyl]-7-[D-2-amino-2-phenylacetamido]-3-acetoxymethyl-3-cephem-4-carboxylic acid] | 3.1 µg/mL (≈ 3.93 µM) | 12.5 µg/mL (≈ 15.9 µM) | 6.3 µg/mL (≈ 8 µM) | 0.8 µg/mL (≈ 1.02 µM) | 6.3 µg/mL (≈ 8 µM) | 25 µg/mL (≈ 31.7 µM) | 3.1 µg/mL (≈ 3.93 µM) | 1.6 µg/mL (≈ 2.03 µM) | 12.5 µg/mL (≈ 15.9 µM) | 6.3 µg/mL (≈ 8 µM) | 50 µg/mL (≈ 63.5 µM) | 1.6 µg/mL (≈ 2.03 µM) | 
O=C(O)Cn1nnnc1SCC1=C(C(=O)O)N2C(=O)C(NC(=O)[C@H](NC(=O)c3ccc(-c4ccc(NC(=O)[C@@H]5CCC(=O)N5)cc4)[nH]c3=O)c3ccccc3)C2SC1 (stereo partly drawn) [Example 16, N-[6-[4-(L-Pyroglutamylamino)phenyl]-1,2-dihydro-2-oxonicotinyl]-7-[D-2-amino-2-phenylacetamido]-3-[[(1-carboxymethyl-1H-tetrazol-5-yl)thio]methyl]-3-cephem-4-carboxylic acid] | 0.8 µg/mL (≈ 0.965 µM) | 3.1 µg/mL (≈ 3.74 µM) | 6.3 µg/mL (≈ 7.6 µM) | 3.1 µg/mL (≈ 3.74 µM) | 6.3 µg/mL (≈ 7.6 µM) | 0.4 µg/mL (≈ 0.483 µM) | 3.1 µg/mL (≈ 3.74 µM) | 0.4 µg/mL (≈ 0.483 µM) | 50 µg/mL (≈ 60.3 µM) | 3.1 µg/mL (≈ 3.74 µM) | 6.3 µg/mL (≈ 7.6 µM) | 12.5 µg/mL (≈ 15.1 µM) | 
